Blank lines part the entries; values can stand above or below the sequence they belong to.
Experiments:
Assay in all cases: pTyr-Var library bacterial peptide display kinase screen (enrichment scores)
[1] = target: T1, c-Abl kinase domain (Mus musculus, UniProt P00520); assay type: biochemical;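 also: log2 fold change in enrichment of variant over reference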
T1 sequence (P00520 242-493 limits assumed): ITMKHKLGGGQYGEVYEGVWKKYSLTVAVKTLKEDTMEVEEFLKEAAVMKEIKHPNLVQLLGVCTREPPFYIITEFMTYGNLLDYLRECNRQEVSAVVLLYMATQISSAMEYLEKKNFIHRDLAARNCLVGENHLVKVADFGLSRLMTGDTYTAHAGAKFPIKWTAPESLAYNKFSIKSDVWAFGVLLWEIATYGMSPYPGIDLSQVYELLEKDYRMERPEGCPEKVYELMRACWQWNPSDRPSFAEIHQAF

[2] = tested on: Fer kinase domain; assay type: biochemical, mouse; details: sheet "Fer";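 also: log2 fold change in enrichment of variant over reference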
[3] = target: c-Src kinase domain (Homo sapiens, UniProt P12931); assay type: biochemical; details: sheet "Src";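 also: log2 fold change in enrichment of variant over reference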
[4] = tested on: EPHB2 kinase domain; assay type: biochemical, human; details: sheet EPHB2;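 also: log2 fold change in enrichment of variant over reference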
[5] = tested on: EPHB1 kinase domain; assay type: biochemical, human
[6] = fig5-data2, sheet "Abl", Screen for the variant/reference peptide pair, pTyr-Var library
[7] = value of the variant peptide against its reference peptide in the pTyr-Var library screen with Fer
[8] = variant peptide versus its reference peptide in the pTyr-Var library screen
[9] = sheet "Abl", effect of variant peptide relative to its reference peptide in pTyr-Var library screen (enrichment)
[10] = effect of variant peptide relative to its reference peptide in the pTyr-Var library screen (enrichment scores)
[11] = effect of the variant peptide relative to its reference peptide in the pTyr-Var library screen
[12] = variant peptide relative to its reference peptide, pTyr-Var library screen enrichment
[13] = effect of the variant relative to its reference peptide in the pTyr-Var library screen

Screen [1, 6]: -0.6074
Sequence: PQIVNYSPDCI [LDHB_Y128_K127N]

Screen [1, 6]: 0.8954
Sequence: PVFEVYPLLNC [GATA1_Y78_Q76E]

Screen [2, 7]: 1.939
Screen [1, 6]: 2.749
Sequence: FDNPIYQKTTE [LDLR_Y828_V827I]

Sequence: PLDEEYFTLQI [TP53_Y327_G325E]
Screen [3, 8]: -0.5709
Screen [1, 9]: -1.267

Sequence: FIIFIYAMKKK [SLCO1B1_Y645_L643F_YF]
Screen [3, 8]: 2.408

Screen [1, 6]: 0.5114
Sequence: LWKWRYEELKE [CCDC102B_Y299_K298R]

Sequence: PEPHIYAVADV [MYO9A_Y216_L211P]
Screen [4, 10]: 0.8276
Screen [3, 8]: 0.7992
Screen [2, 7]: 0.8588

Screen [1, 9]: 0.751
Sequence: FSGQVYRQRRK [TH_Y230_D227G]

Sequence: HFPDVYAWEQL [ALX3_Y181_R183W_YF]
Screen [3, 11]: 2.591
Screen [2, 7]: 4.265

Screen [1, 6]: 0.9485
Sequence: AKKMKYFEGVS [PRKDC_Y682_I680M]

Screen [1, 6]: 2.325
Sequence: DRQASYLDKVR [KRT17_Y98_L95Q]

Screen [2, 7]: 1.219
Sequence: GEEIKYMLWLL [OTC_Y55_S60L]

Sequence: PPDGEYFTLQI [TP53_Y327_L323P]
Screen [3, 8]: 0.5031

Screen [1, 6]: 1.325
Sequence: QQIFTYDSGIH [JUP_Y22_T19I_YF]

Sequence: AEDKPYAELWT [MPI_Y46_M51T]
Screen [3, 11]: -0.4439
Screen [2, 7]: -0.5845

Screen [4, 10]: -0.8191
Screen [2, 12]: -0.9023
Sequence: LRSRVYEVPVE [SLC26A3_Y756_N753S]

Sequence: VNFDFYTVNLG [GFPT1_Y367_D366Y_YF]
Screen [3, 11]: 0.9419

Sequence: FLENFYDLEKD [MMP3_Y42_K45E_YF]
Screen [3, 11]: 0.2474

Screen [1, 6]: 1.393
Sequence: GMKIVYVFVKK [DNAI2_Y5_E2K_YF]

Sequence: SVETPYVSVTF [NDRG2_Y47_G48V]
Screen [3, 8]: -1.163
Screen [2, 7]: -1.711

Sequence: VEEDTYTMPST [PTK2_Y407_D402V]
Screen [3, 8]: 0.7074

Sequence: PKSLFYLLLKP [TRPC6_Y775_L780P]
Screen [4, 13]: -1.737
Screen [3, 8]: -1.15
Screen [2, 12]: -0.7977

Screen [4, 10]: 0.4332
Screen [2, 7]: 0.5368
Sequence: EGTATYAAAIL [JUP_Y644_V648I]

Screen [2, 7]: -0.07246
Sequence: CKSIHYDLVFL [COL22A1_Y37_V35I]

Screen [1, 6]: 0.7285
Sequence: REGDKYVSHGA [ASS1_Y113_A111D]

Screen [2, 7]: -1.007
Sequence: KNKELYSDPFD [PDE10A_Y300_L303P]

Screen (variant relative to reference peptide, measured in the pTyr-Var library screen) ([5]; sheet "EPHB1", variant seq vs reference seq, bacterial peptide display enrichment): -3.574
Sequence: KKFPDYIQSAM [SGMS2_Y59_I62S_YF]

Sequence: GESLTYVSTTF [C1orf162_Y120_A121V]
Screen [3, 11]: -2.006

Screen [1, 9]: 2.315
Sequence: TVLEPYTDPFF [ZC3H18_Y367_A368T_YF]

Screen ([5]; sheet EPHB1, effect of the variant peptide relative to its reference peptide in the pTyr-Var library screen (enrichment scores)): -0.7762
Sequence: FEKFLYFLPAS [DYNC2H1_Y346_H341Y_YF]

Screen [4, 10]: -1.099
Sequence: LIGRGYDDPEV [HSPA9_Y128_R127G]

Screen [4, 10]: 0.6291
Sequence: LGKLTYPVGFW [NTHL1_Y177_I176T]

Sequence: DGQFVYKLTDF [TBK1_Y153_S151F]
Screen [3, 8]: -0.3973

Screen [1, 6]: 1.283
Sequence: VRFMAYTDETC [F8_Y450_F455C]

Sequence: RQNNSYTCFTA [SLC20A2_Y386_R382Q_YF]
Screen [4, 10]: -1.481
Screen [3, 8]: -1.243

Sequence: ACEVLYNIVFM [NCF2_Y125_A128V]
Screen [3, 8]: 0.004351
Screen [2, 7]: 0.5953

Sequence: QMVDMYASSFM [AVPR2_Y124_G122D_YF]
Screen [3, 11]: 0.5236

Screen [1, 6]: 0.9527
Sequence: VPHECYAKVFD [ALB_Y394_D389V]

Sequence: GADAIYDHVNE [UQCR10_Y44_I47V]
Screen [4, 13]: 0.825
Screen [3, 8]: -0.3881
Screen [2, 12]: 0.2964

Sequence: NEKNIYGVPLM [BMPR2_Y247_R248G]
Screen [4, 10]: 2.247
Screen [3, 11]: 1.983
Screen [2, 7]: 2.844

Sequence: SVMAEYGLFAA [VSX2_Y219_G223A_YF]
Screen [3, 8]: -0.3175

Sequence: PLDGEYSTLQI [TP53_Y327_F328S]
Screen [3, 8]: -0.3767
Screen [2, 12]: 1.6

Screen [4, 10]: 1.141
Sequence: HNQDDYSFPSR [LDLR_Y845_G844D_YF]

Sequence: FGCGMYSHLQG [LGR4_Y848_D844G_YF]
Screen [3, 11]: -0.3661
Screen [2, 7]: -1.105

Sequence: TESALYGCTIL [MAP3K21_Y724_V728I]
Screen [3, 11]: 0.3601
Screen [2, 7]: -0.01841

Screen [1, 6]: -0.5504
Sequence: TLLAFYMGNFS [GLB1_Y552_P549L]

Screen [1, 6]: -1.545
Sequence: LSCLAYSGKDA [FXN_Y205_S202C]

Screen [1, 6]: -1.096
Sequence: PIPIKYKAMKK [MYD88_Y257_L252P]

Screen [1, 9]: 3.304
Sequence: KAWTIYHPEDS [ZBP1_Y165_R166H]

Screen [1, 6]: -1.342
Sequence: SRNSKYNAEST [PSEN1_Y315_K311R]

Sequence: PLQKIYNFNVL [SLC4A1_Y553_T552I_YF]
Screen [3, 8]: 2.735

Source: article PMC10065799, “High-throughput profiling of sequence recognition by tyrosine kinases and SH2 domains using bacterial peptide display” (eLife, 2023)
